Measurements taken from PubChem BioAssay AID1963433 (Molecular Pharmacology Branch, DTP, NCI, 2024).

System: 772245-204-R-J1-PDC complex spheroid growth
Test: Anticancer human tumor 772245-204-R-J1-PDC patient-derived rhabdomyosarcoma cell line growth inhibition [Asc]
Settings: for IC50: curve of first compound; for viability, T/C: stronger effect = lower value
Summary of the method: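 Tumor cells were grown as multicellular spheroids with stromal HUVEC and mesenchymal stem cells and treated singly or in combination. Concentrations fell in half-log steps from the clinical Cmax, or from 10 microM where none was known.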

[1] = second compound 0.1 µM, first compound 0.00316 µM
[2] = second compound 0.1 µM, first compound 0.01 µM
[3] = second compound 0.1 µM, first compound 0.0316 µM
[4] = second compound 0.1 µM, first compound 0.1 µM
[5] = second compound 0.1 µM, first compound 0.316 µM
[6] = second compound 0.1 µM, first compound 1 µM
[7] = second compound 0.316 µM, first compound 0.00316 µM
[8] = second compound 0.316 µM, first compound 0.01 µM
[9] = second compound 0.316 µM, first compound 0.0316 µM
[10] = second compound 0.316 µM, first compound 0.1 µM
[11] = second compound 0.316 µM, first compound 0.316 µM
[12] = second compound 0.316 µM, first compound 1 µM
[13] = second compound 1 µM, first compound 0.00316 µM
[14] = second compound 1 µM, first compound 0.01 µM
[15] = second compound 1 µM, first compound 0.0316 µM
[16] = second compound 1 µM, first compound 0.1 µM
[17] = second compound 1 µM, first compound 0.316 µM
[18] = second compound 1 µM, first compound 1 µM
[19] = second compound 3.16 µM, first compound 0.00316 µM
[20] = second compound 3.16 µM, first compound 0.01 µM
[21] = second compound 3.16 µM, first compound 0.0316 µM
[22] = second compound 3.16 µM, first compound 0.1 µM
[23] = second compound 3.16 µM, first compound 0.316 µM
[24] = second compound 3.16 µM, first compound 1 µM
[25] = second compound 10 µM, first compound 0.00316 µM
[26] = second compound 10 µM, first compound 0.01 µM
[27] = second compound 10 µM, first compound 0.0316 µM
[28] = second compound 10 µM, first compound 0.1 µM
[29] = second compound 10 µM, first compound 0.316 µM
[30] = second compound 10 µM, first compound 1 µM
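Also: compound exposure lasted seven days.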
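For viability, T/C in this document: 100% = DMSO vehicle control viability.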

Row | Structure (SMILES) | IC50 (second compound 0.1 µM) [µM] | IC50 (second compound 0.316 µM) [µM] | IC50 (second compound 1 µM) [µM] | IC50 (second compound 3.16 µM) [µM] | IC50 (second compound 10 µM) [µM] | viability, T/C [1] [%] | viability, T/C [2] [%] | viability, T/C [3] [%] | viability, T/C [4] [%] | viability, T/C [5] [%] | viability, T/C [6] [%] | viability, T/C [7] [%] | viability, T/C [9] [%] | viability, T/C [10] [%] | viability, T/C [15] [%] | viability, T/C [16] [%] | viability, T/C [21] [%] | viability, T/C [22] [%] | viability, T/C [27] [%] | viability, T/C [28] [%] | also measured
1 | CCN1CCN(Cc2ccc(Nc3ncc(F)c(-c4cc(F)c5nc(C)n(C(C)C)c5c4)n3)nc2)CC1 + Cc1c(S(C)(=O)=O)c(-c2cc(F)cc(N3CCN(c4ccc(NS(=O)(=O)c5ccc(NC(CCN6CCC(C(=O)OCCCP(=O)(O)O)CC6)CSc6ccccc6)c(S(=O)(=O)C(F)(F)F)c5)cc4)CC3)c2)c(-c2ccc(Cl)cc2)n1C(C)C | > 1 | 0.436 | 0.0239 | < 0.00316 | < 0.00316 | 77.4 | 78.2 | 77.3 | 82.1 | 83.4 | 74.7 | 68.9 | 60.5 | 58.5 | 50 | 37.7 | 42 | 32.6 | 41 | 29.9 | viability, T/C [8]: 58.1%; viability, T/C [11]: 51.7%; viability, T/C [12]: 45.5%; viability, T/C [13]: 53.9%; viability, T/C [14]: 52.9%; viability, T/C [17]: 22.8%; viability, T/C [18]: 9.85%; viability, T/C [19]: 49%; viability, T/C [20]: 42.5%; viability, T/C [23]: 15.1%; viability, T/C [24]: 5.17%; viability, T/C [25]: 49.7%; viability, T/C [26]: 42.3%; viability, T/C [29]: 15.5%; viability, T/C [30]: 3.23%
2 | Cn1ncnc1[C@H]1c2n[nH]c(=O)c3cc(F)cc(c23)N[C@@H]1c1ccc(F)cc1 + Cc1c(S(C)(=O)=O)c(-c2cc(F)cc(N3CCN(c4ccc(NS(=O)(=O)c5ccc(NC(CCN6CCC(C(=O)OCCCP(=O)(O)O)CC6)CSc6ccccc6)c(S(=O)(=O)C(F)(F)F)c5)cc4)CC3)c2)c(-c2ccc(Cl)cc2)n1C(C)C | > 0.1 | 0.00384 | 0.00123 | < 0.000316 | < 0.000316 | 70.5 | 63.3 | 58.9 | 55 |  |  | 53.3 | 29.2 | 23.6 | 25.8 | 15.2 | 12.5 | 10.6 | 11.1 | 12 | viability, T/C (second compound 0.1 µM, first compound 0.000316 µM): 73.2%; viability, T/C (second compound 0.1 µM, first compound 0.001 µM): 77.1%; viability, T/C (second compound 0.316 µM, first compound 0.000316 µM): 61.4%; viability, T/C (second compound 0.316 µM, first compound 0.001 µM): 58.8%; viability, T/C [8]: 37%; viability, T/C (second compound 1 µM, first compound 0.000316 µM): 47.1%; viability, T/C (second compound 1 µM, first compound 0.001 µM): 58.7%; viability, T/C [13]: 37%; viability, T/C [14]: 15.5%; viability, T/C (second compound 3.16 µM, first compound 0.000316 µM): 34.2%; viability, T/C (second compound 3.16 µM, first compound 0.001 µM): 44.3%; viability, T/C [19]: 33.3%; viability, T/C [20]: 19.7%; viability, T/C (second compound 10 µM, first compound 0.000316 µM): 40.9%; viability, T/C (second compound 10 µM, first compound 0.001 µM): 34.6%; viability, T/C [25]: 27.7%; viability, T/C [26]: 13.2%
3 | O=C(c1cc(Cc2n[nH]c(=O)c3ccccc23)ccc1F)N1CCN(C(=O)C2CC2)CC1 + Cc1c(S(C)(=O)=O)c(-c2cc(F)cc(N3CCN(c4ccc(NS(=O)(=O)c5ccc(NC(CCN6CCC(C(=O)OCCCP(=O)(O)O)CC6)CSc6ccccc6)c(S(=O)(=O)C(F)(F)F)c5)cc4)CC3)c2)c(-c2ccc(Cl)cc2)n1C(C)C | 3.27 | 0.435 | 0.0445 | < 0.0316 | < 0.0316 |  |  | 76.8 | 81.5 | 83.2 | 63.6 |  | 62.8 | 50.5 | 52.1 | 46.8 | 26.3 | 36.3 | 34.8 | 47.2 | viability, T/C (second compound 0.1 µM, first compound 3.16 µM): 52.7%; viability, T/C (second compound 0.1 µM, first compound 10 µM): 34.3%; viability, T/C [11]: 44.2%; viability, T/C [12]: 54.5%; viability, T/C (second compound 0.316 µM, first compound 3.16 µM): 28.5%; viability, T/C (second compound 0.316 µM, first compound 10 µM): 10.6%; viability, T/C [17]: 46.9%; viability, T/C [18]: 30.7%; viability, T/C (second compound 1 µM, first compound 3.16 µM): 12.8%; viability, T/C (second compound 1 µM, first compound 10 µM): 6.31%; viability, T/C [23]: 33.9%; viability, T/C [24]: 22%; viability, T/C (second compound 3.16 µM, first compound 3.16 µM): 6.64%; viability, T/C (second compound 3.16 µM, first compound 10 µM): 2.64%; viability, T/C [29]: 33.8%; viability, T/C [30]: 17.4%; viability, T/C (second compound 10 µM, first compound 3.16 µM): 13.3%; viability, T/C (second compound 10 µM, first compound 10 µM): 6.24%
4 | O=C(c1ccc(F)c(F)c1Nc1ccc(I)cc1F)N1CC(O)([C@@H]2CCCCN2)C1 + Cc1c(S(C)(=O)=O)c(-c2cc(F)cc(N3CCN(c4ccc(NS(=O)(=O)c5ccc(NC(CCN6CCC(C(=O)OCCCP(=O)(O)O)CC6)CSc6ccccc6)c(S(=O)(=O)C(F)(F)F)c5)cc4)CC3)c2)c(-c2ccc(Cl)cc2)n1C(C)C | 0.673 | 0.364 | 0.35 | 0.224 | 0.342 | 85.4 | 85.7 | 85 | 72.4 | 80.5 | 34.2 | 76.3 | 64.4 | 67.5 | 66.4 | 69 | 56.6 | 59.7 | 57.1 | 78.8 | viability, T/C [8]: 76.7%; viability, T/C [11]: 55.9%; viability, T/C [12]: 19.9%; viability, T/C [13]: 61.1%; viability, T/C [14]: 66%; viability, T/C [17]: 50.8%; viability, T/C [18]: 13.4%; viability, T/C [19]: 57.1%; viability, T/C [20]: 60.7%; viability, T/C [23]: 45.9%; viability, T/C [24]: 8.31%; viability, T/C [25]: 40.2%; viability, T/C [26]: 44.9%; viability, T/C [29]: 52.2%; viability, T/C [30]: 4.51%
